In US20210205292A1, “INHIBITORS OF CREB-CBP INTERACTION FOR TREATMENT OF LEUKEMIA” (The Board of Trustees of the Leland Stanford Junior …, priority 2016, published 2021):

What was measured:
[1] = target: T1, KIX domain of CBP, Arginine-600 to Alanine mutant (GST fusion) (Homo sapiens, UniProt Q92793, R601A); test: Biacore surface plasmon resonance, binding to KIX Arg-600-Ala mutant versus native KIX; settings: 5 μM
T1 construct: spans CBP amino acids 586-666; made in house; host or cells: E. coli BL21(DE3)
T1 sequence (Q92793 586-666 R601A): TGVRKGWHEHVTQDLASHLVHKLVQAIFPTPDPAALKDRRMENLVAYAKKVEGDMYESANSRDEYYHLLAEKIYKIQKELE
Protocol: KIX domain mutants were created by standard cloning and mutagenesis methods in the pGEX4T3 vector (GE Healthcare Life Sciences). GST-KIX fusion proteins were expressed in BL21(DE3-) cells (New England Biolabs) following induction with 1 mM IPTG for 6 hours at 37 degrees. GST-KIX and its mutants were purified with the B-PER GST Fusion Protein Spin Purification Kit (Thermo Scientific/Pierce). Surface Plasmon Resonance (Biacore) analysis was performed on a GE Biacore 3000 surface plasmon resonance instrument in collaboration with the Stanford Protein and Nucleic Acid (PAN) Facility.
To confirm the binding of Compound A to the KIX domain of CBP, the KIX domain was expressed and purified as a fusion protein with Glutathione-S-Transferase (GST). Binding of Compound A to the KIX domain and two KIX domain mutants in which residues critical for CREB binding were altered or removed (Arg-600 mutated to Alanine or deletion of amino acids 586-602) was determined by Surface Plasmon Resonance (Biacore) analysis (FIG. 1, panel B). Mutation of Arginine-600 to Alanine reduced binding of Compound A by ˜45%, while a KIX domain mutant lacking amino acids 586-602 reduced binding by ˜70%. […] A hypothetical binding model between Compound A and CBP KIX domain is shown (FIG. 1, panel C). […]

CREB genomic binding = test: CREB ChIP-Seq in KG-1 cells; type: cell-based; settings: 5 μM, 6 hours
Protocol: For Chip-Seq experiments, KG-1 cells were treated with 5 μM Compound A or DMSO for 6 hours. Cells were cross-linked with 1% formaldehyde at room temperature for 10 min and then incubated with […] for 5 min. After cross-linking, chromatin was digested by Micrococcal nuclease and then sonicated using SimpleChIP® Plus Enzymatic Chromatin IP Kit (Cell Signaling, Danvers, Mass.) following the manufacturer's protocol. Chromatin immunoprecipitations were carried out with anti-CREB antibody (Millipore, Billerica, Mass.) or a control IgG (Santa Cruz Biotechnology). The captured immunocomplexes containing bound transcriptional DNA fragments were eluted, with recovered DNA fragments used for PCR amplification. For RNA-Seq experiments, KG-1 cells were treated with Compound A (5 μM) or 0.1% DMSO for 12 hours. RNA was prepared using the Aurum Total RNA Mini Kit (Bio-Rad). Sample libraries were run using the Illumina sequencing platform. Two hundred million reads were collected on two biological replicates of the experiment. […]
To determine the functional specificity and downstream effects of Compound A in AML, the CREB transcriptome was first defined in KG-1 cells using CREB chromatin immunoprecipitation followed by high-throughput sequencing (CREB ChIP-Se). […] In this way, the ‘on-target’ effects of Compound A could be assessed.

KG-1 cells = test: Chemotherapy combination, isobolograms in KG-1 cells; type: cell-based; settings: 48 hours
Protocol: AML cell lines were purchased from ATCC and maintained with IMDM (Gibco) supplemented with 10% FBS (Fisher Scientific) and 1% PSG (Gibco). Cells were plated at a density of 2-4×10^5 cells/ml, and treated with various doses of Compound A in 0.1% DMSO or 0.1% DMSO alone. Cell counts and viability were determined using the Vi-CELL XR Cell Viability Analyzer (Beckman Coulter). HL-60 and KG-1 cells overexpressing CREB or CBP were generated using lentiviral gene delivery with subsequent puromycin selection and FACs sorting for GFP. CREB knockdown was achieved by infecting cells with a lentivirus expressing the shRNA sequence 5′-[…]-3′ (SEQ ID NO:). For chemotherapy combination experiments, combination index values were calculated using median effects analysis on Calcusyn software. Human patient bone marrow samples were cultured in DMEM plus 20% FBS and 1×PSG, supplemented with recombinant GM-CSF (20 ng/ml), G-CSF (20 ng/ml), SCF (50 ng/ml), IL-3 (20 ng/ml), and IL-6 (10 ng/ml). Cells were plated at a concentration of 1×10^5 cells/ml in a 12-well plate. Vehicle (0.1% DMSO) or Compound A (2 μM) was added for up to 72 hours. All samples contained >85% AML blasts and were not sorted prior to performing experiments. Immunostaining and flow cytometry analyses were performed according to standard procedures. All antibodies were purchased from BD Biosciences. Single cell suspensions of bone marrow culture were subsequently analyzed on a D×P10 flow cytometer (Cytek). Bone marrow from AML patients were collected through voluntary patient participation at University of California, Los Angeles (Los Angeles, Calif., USA) and Stanford University (Palo Alto, Calif., USA) in compliance with the Institutional Review Board regulations of each institution.
To test the effects of CREB inhibition on AML cells, four AML cell lines were treated with doses of Compound A ranging from 100 pM to 10 μM for 48 hours. […] KG-1 cells were less sensitive to Compound A and expressed lower levels of CREB compared to HL-60 cells (FIG. 2, panel A). […]

SMILES: N#Cc1ccc(NC(=O)c2cc3ccccc3cc2O)cc1 [Compound A, N-(4-cyanophenyl)-3-hydroxy-2-naphthamide]
- reduction of binding of Compound A by mutation of Arginine-600 to Alanine [1]: ~45%
- CREB genomic binding (CREB genomic binding): did not change
- interaction with daunorubicin and cytarabine (isobolograms) (KG-1 cells): synergistic
- Combination Index (CI) (KG-1 cells; Compound A with cytarabine): less than 1
- Combination Index (CI) (KG-1 cells; Compound A with daunorubicin): less than 1
